“And” between values parts separate entries of the source, which are not always exact repeats. Identical values can stand only once. “Also recorded” adds a separate entry of the source.
Key:
astrocytes = assay: Unconjugated bilirubin-induced apoptosis in astrocytes; type: cell-based, rat; settings: for apoptosis, increase over control values: 4 hours
rat primary hepatocytes = assay: FACS analysis of ΔΨm and ROS, rat primary hepatocytes; type: cell-based; settings: 1% ETOH, 4 h, hepatocytes
Description: A ΔΨm and ROS measurement. ΔΨm and ROS production were measured by FACScan (Becton Dickinson) analysis. Freshly isolated rat hepatocytes were cultured for 3 h as described above and then incubated with William's E medium supplemented with either 100 μM DCA, 100 μM UDCA, equal molar amounts of both, or no bile acid (control), for 6 h. Rat hepatocytes were also cultured with either 1% ethanol, 100 μM UDCA, ethanol+UDCA, or no addition (control) for 4 h. HuH-7 cells, Hep G2 cells, and human osteogenic sarcoma Saos-2 cells were incubated with TGF-β1, anti-Fas antibody or okadaic acid, respectively, for 48 h under the same conditions as outlined above. For combination studies, cells were pretreated with UDCA or hyodeoxycholic acid for 60 min prior to addition of DCA, ethanol, TGF-β1, anti-Fas antibody or okadaic acid. Aliquots of 1.0×10^6 cells were incubated for 15 min at 37° C. with 50 nM 3,3′-dihexyloxacarbocyanine iodide [DiOC6(3)], 2 μM dihydroethidium (HE), or 5 μM 2′,7′-dichlorofluorescin diacetate (H2DCFDA; Molecular Probes, Inc. Eugene, Oreg.) and analyzed by cytofluorometry (Cathcart et al., Anal. Biochem., 134, 111-116 (1983); Zamzami et al., J. Exp. Med., 181, 1661-1672 (1 995); Carter et al., J. Leukocyte Biol., 55, 253-258 (1994)).
Rat primary hepatocytes were incubated with 100 μM DCA and 1% ETOH for 6 h and 4 h, respectively; HuH-7 cells with 1 nM TGF-β1 for 48 h; Hep G2 cells with 0.5 μg/ml anti-Fas antibody (CH-11) for 48 h, and Saos-2 cells with 50 nM okadaic acid (OA) for 48 h. In each combination group, cells were pretreated with 100 μM UDCA alone for 60 min prior to addition of the inducer. Aliquots of 1.0×10^6 cells were incubated for 15 min at 37° C. with 5 μM 2′,7′-dichlorofluorescin diacetate (H2DCFDA) and analyzed by cytofluorometry.

[1] = system: isolated rat liver mitochondria; assay: MPT spectrophotometric assay (mitochondrial swelling); settings: for effect on DCA-induced MPT / mitochondrial swelling: preincubation (500 μM bile acid or cyclosporine A) before DCA
Description: Isolation of mitochondria and MPT assays. Low calcium liver mitochondria were isolated from male 200-250 g Sprague-Dawley rats by density gradient centrifugation as previously published (Botla et al., J. Pharmacol. Exp. Ther., 272, 930-938 (1995); Walajtys-Rhode et al., J. Biol. Chem., 267, 370-379 (1992); and Sokol et al., Gastroenterology, 99, 1061-1071 (1990)). The mitochondrial fraction was resuspended in 30 ml of wash buffer containing 0.1 M KCl, 5 mM 3-(N-morpholino)-propane sulfonic acid (MOPS), and 1 mM EGTA, at pH 7.4 and centrifuged at 7,000×g for 10 min at 4° C. A final wash was carried out in chelex-100-treated buffer (Bio-Rad Laboratories, Hercules, Calif.) containing no EGTA. The resulting pellet was suspended in 4 ml of chelex--100-treated buffer containing 125 mM sucrose, 5 mM HEPES, 50 mM KCl and 2 mM KH2PO4. The usual yield of mitochondria was approximately 25 mg of protein per gram of liver tissue. Mitochondrial purity was established as previously described (Botla et al., J. Pharmacol. Exp. Ther., 272, 930-938 (1995)). Protein concentrations were determined using the Bio-Rad protein assay kit as specified by the manufacturer.
MPT was measured spectrophotometrically as described previously (Botla et al., J. Pharmacol. Exp. Ther., 272, 930-938 (1995); Pastorino et al., J. Biol. Chem., 268, 13791-13798 (1993)), during 10 min incubations at 25° C. using mitochondria (1 mg of protein/ml) suspended in 3 ml of a chelex-100-treated buffer containing 0.1 M NaCl, 10 mM MOPS, pH 7.4. Swelling was monitored at 540 nm in a Beckman DU 64 spectrophotometer. Basal values of mitochondria absorbance were measured for 5 min, and the optical density was monitored another 5 min after addition of 200 μM DCA or 80 μM phenylarsine oxide (PhAsO; Sigma Chemical Co.). For coincubation studies, mitochondria were preincubated with 500 μM UDCA or hyodeoxycholic acid for 5 min at 25° C. prior to the assay.
Spectrophotometric and Fluorimetric Assays of MPT. The MPT was assessed using a spectrophotometric assay measuring high amplitude rapid changes in mitochondrial volume, and a fluorimetric assay quantitating the release of calcein from calcein-loaded mitochondria. The MPT was measured spectrophotometrically as previously described (Pastorino, J. Biol. Chem., 268, 13791-13798 (1993); Botla et al., J. Pharmacol. Exp. Ther., 272, 930-938 (1995)). Briefly, mitochondria (3 mg protein) were incubated in 3 ml of chelex-100-treated respiration buffer (0.1 M NaCl, 10 mM MOPS, pH 7.4) for 10 min at 25° C. and monitored at 540 nm in a Beckman DU 64 spectrophotometer. Basal values of mitochondrial absorbance were measured for 5 min, and the optical density was monitored for an additional 5 min after addition of increasing concentrations of DCA (50-200 μM) or 80 μM phenylarsine oxide (PhAsO; Sigma Chemical Co., St. Louis, Mo.). For the coincubation studies, mitochondria were preincubated with UDCA (100-500 μM), or 500 μM hyodeoxycholic acid (HDCA; Sigma Chemical Co.) for 5 min at 25° C. prior to initiation of the assay.
Measurement of MPT and determination of cytochrome c content in supernatants and mitochondrial pellets after MPT. The MPT was assessed using a spectrophotometric assay measuring high amplitude rapid changes in mitochondria volume. Mitochondria (1 mg protein) were incubated in 1 ml of chelex-100-treated respiration buffer (0.1 M NaCl, 10 mM MOPS, pH 7.4) for 10 min at 25° C. and swelling was monitored at 540 nm in a Beckman DU 64 spectrophotometer. Malate and glutamate (1 mM) were added to initiate respiration, and 3 min later rotenone (5 μM), an inhibitor of complex I of the respiratory chain, was also added to the supension. Basal values of mitochondria absorbance were measured for 5 min, and the optical density was monitored for an additional 5 min after addition 200 μM DCA or 80 μM phenylarsine oxide (PhAsO; Sigma Chemical Co.). […]

primary rat hepatocytes = assay: Ethanol-induced apoptosis, Hoechst staining, primary rat hepatocytes; type: cell-based; settings: 0.5% ethanol
Description: (§1) Incubation of cells with ethanol, TGF-β1, anti-Fas antibody or okadaic acid. Freshly isolated rat hepatocytes were cultured for 3 h as described above and then incubated with William's E medium supplemented with either 0.5% ethanol, 50 μM UDCA, ethanol plus UDCA, or no addition (control) for 2 h and 4 h. HuH-7 cells were incubated with Dulbecco's medium supplemented with either 1 nM TGF-β1 (R & D Systems, Minneapolis, Minn.), 100 μM UDCA, TGF-β1+UDCA, or no addition (control) for 24 h, 48 h, and 72 h. Hep G2 cells were incubated with Dulbecco's medium supplemented with either 0.5 μg/ml of anti-Fas antibody CH-11 (Upstate Biotechnology, Inc., Lake Placid, N.Y.), 100 μM UDCA, CH-11+UDCA, or no addition for 48 h. Both HuH-7 cells and human osteogenic sarcoma Saos-2 cells were cultured in Dulbecco's medium supplemented with either 50 nM okadaic acid (Boehringer Mannheim Biochemicals, Inc, Indianapolis, Ind.), 100 μM UDCA, okadaic acid+UDCA, or no addition for 48 h. In all the combination groups, cells were pretreated with UDCA alone for 60 min prior to addition of ethanol, TGF-β1, anti-Fas antibody or okadaic acid.
(§2) Morphological evaluation of apoptosis. Morphology was performed as described previously (Oberhammer et al., Proc. Natl. Acad. Sci. USA 89, 5408-5412 (1992)). Briefly, after fixation (with 4% formaldehyde in PBS, pH 7.4, for 10 min at room temperature), the cells were incubated with Hoechst dye 33258 (Sigma Chemical Co.) at 5 μg/ml in PBS for 5 min, washed with PBS and mounted with PBS:glycerol (3:1, v/v). Fluorescence was visualized with a Zeiss standard fluorescence microscope (Carl Zeiss, Inc., Thornwood, N.Y.). Photographs were taken with Kodak Ektar-1000 film (Eastman Kodak Co.). Stained nuclei were scored by blind analysis and categorized according to the condensation and staining characteristics of chromatin. Normal nuclei were identified as noncondensed chromatin dispersed over the entire nucleus. Apoptotic nuclei were identified by condensed chromatin, contiguous to the nuclear membrane, as well as nuclear fragmentation of condensed chromatin. Three fields per dish of approximately 500 nuclei were counted; mean values are expressed as the percent of apoptotic nuclei.

HuH-7 cells = assay: TGF-β1-induced apoptosis, Hoechst staining, HuH-7 cells; type: cell-based, human; settings: 1 nM TGF-β1, 100 μM bile acid, 72 h
Description: as §1
HuH-7 cells were treated with 1 nM TGF-β1, 100 μM of either hyodeoxycholic acid, taurocholic acid, tauroursodeoxycholic acid (Sigma Chemical Co.) or glycoursodeoxycholic acid (Steraloids Inc., Wilton, N.H.), or a combination of TGF-β1 plus the individual bile acids for 72 h. HeLa and Cos-7 cells were incubated with 50 nM okadaic acid, 100 μM of either tauroursodeoxycholic acid or glycoursodeoxycholic acid, or a combination of okadaic acid plus the individual bile acids for 24 h. In the combination groups, cells were pretreated with the bile acid alone for 60 min prior to incuation with TGF-β1 or okadaic acid. In all studies, the medium was gently removed at the indicated times and scored for nonviable cells. The attached cells were fixed for morphologic evaluation of apoptosis.
as §2, with “Morphology was performed as described previously (Oberhammer et al., Proc. Natl. Acad. Sci. USA 89, 5408-5412 (1992)). Briefly, after fixation (with 4% formaldehyde in PBS, pH 7.4, for 10 min at room temperature), the cells were incubated with Hoechst dye 33258 (Sigma Chemical Co.) at 5 μg/ml in PBS for 5 min, washed with PBS and mounted with PBS:glycerol (3:1, v/v).” left out

cytochrome c = assay: Cytochrome c release from isolated mitochondria after MPT; set-up: species or system rat; settings: added to isolated mitochondria before DCA
Description: Mitochondria isolation. […] In short, animals were sacrificed by exsanguination under ether anesthesia and the livers removed and rinsed in normal saline. Approximately 10 g of minced liver was homogenized at a speed of 800 rpm using 6 complete up and down strokes with a speed controlled mechanical skill drill and a teflon pestle (Tri-R Model K41, Tri-R Instruments, Rockville Center, N.Y.) in an ice-cold solution of 70 mM sucrose, 220 mM mannitol, 1 mM EGTA and 10 mM HEPES, pH 7.4 as a 10% (wt/vol) homogenate. The homogenate was centrifuged at 600×g for 10 min at 4° C. in an SS-34 rotor in a Sorvall RC5C centrifuge (Sorvall Instruments, Newtown, Conn.), and the postnuclear supernatant was centrifuged at 7,000×g for 10 min at 4° C. […] The pellet was resuspended in 2 mL of homogenate buffer, and 1 mL of the resuspended pellet was carefully layered onto a 35-mL self-generating gradient containing 0.25 M sucrose, 1 mM EGTA and percoll (Pharmacia Fine Chemicals, Piscataway, N.J.) (75:25, vol/vol). The mitochondria were purified by centrifugation at 43,000×g for 30 min at 4° C. using a Beckman Ti60 rotor and a Beckman ultracentrifuge model L8-55 (Beckman Instruments, Inc., Schaumburg, Ill.). The clear supernatant solution removed and the lower turbid layer was resuspended in 30 mL of wash buffer containing 0.1 M KCl, 5 mM 3-(N-morpholino)-propane sulfonic acid (MOPS), and 1 mM EGTA, at pH 7.4 and centrifuged at 7,000×g for 10 min at 4° C. The resulting mitochondria pellet was washed in wash buffer two times. A final wash was carried out in chelex-100-treated buffer (Bio-Rad Laboratories, Richmond, Va.; 200-400 mesh, potassium form) without EGTA. The pellet was suspended in 4 mL of chelex-100-treated resuspension buffer containing 125 mM sucrose, 50 mM KCl, 5 mM HEPES, and 2 mM KH2PO4. The usual yield of mitochondria was approximately 25 mg of protein per gram of liver tissue. Mitochondria were used for experiments within 3 h of isolation. Aliquots were removed for examining the purity of the mitochondria preparation.
Measurement of MPT and determination of cytochrome c content in supernatants and mitochondrial pellets after MPT. The MPT was assessed using a spectrophotometric assay measuring high amplitude rapid changes in mitochondria volume. Mitochondria (1 mg protein) were incubated in 1 ml of chelex-100-treated respiration buffer (0.1 M NaCl, 10 mM MOPS, pH 7.4) for 10 min at 25° C. and swelling was monitored at 540 nm in a Beckman DU 64 spectrophotometer. […] Basal values of mitochondria absorbance were measured for 5 min, and the optical density was monitored for an additional 5 min after addition 200 μM DCA or 80 μM phenylarsine oxide (PhAsO; Sigma Chemical Co.). […]

stroke injury = assay: Stroke injury in a rat model; type: in vivo; settings: preliminary results

Molecule: C=CC1=C(C)/C(=C/c2[nH]c(Cc3[nH]c(/C=C4\NC(=O)C(C)=C4C=C)c(C)c3CCC(=O)O)c(CCC(=O)O)c2C)NC1=O [UCB, unconjugated bilirubin]
- apoptosis, increase over control values (astrocytes; 17 μM UCB): about 6 fold
- apoptosis, increase over control values (astrocytes; 85.5 μM UCB): about 11 fold
- percentage of apoptotic cells (astrocytes; 85.5 μM UCB, 22 hours): about 48%
- cell viability (astrocytes; UCB treatment): concentration and time dependent decrease in cell viability

Molecule: CCO [ethanol]
- Peroxides Production (%) Inducer (rat primary hepatocytes): 17.9 ± 5.4%
- mitochondrial swelling with the substance alone ([1]; substance alone added to isolated mitochondria): did not induce mitochondria swelling
- increase in apoptosis over control values (primary rat hepatocytes; 2 h): 10 fold
- increase in apoptosis (primary rat hepatocytes; time not stated (summary)): 12 fold

Molecule: C[C@H](CCC(=O)NCC(=O)O)[C@H]1CC[C@H]2[C@@H]3[C@@H](O)C[C@@H]4C[C@H](O)CC[C@]4(C)[C@H]3CC[C@]12C [glycoursodeoxycholic acid]
- decrease of TGF-β1 apoptosis (HuH-7 cells): 37.5±5.1%
- effect on DCA-induced MPT / mitochondrial swelling [1]: Inhibition of deoxycholic acid-induced MPT
- effect on deoxycholic acid-induced cytochrome c release (cytochrome c): Inhibition of deoxycholic acid-induced MPT and cytochrome c release were also observed

Molecule: C[C@H](CCC(=O)NCCS(=O)(=O)O)[C@H]1CC[C@H]2[C@@H]3[C@H](O)C[C@@H]4C[C@H](O)CC[C@]4(C)[C@H]3C[C@H](O)[C@]12C [taurocholic acid]
- inhibition of TGF-β1-induced apoptosis (HuH-7 cells): did not; also recorded: neither hyodeoxycholic acid nor taurocholic acid showed inhibition

Molecule: C[C@H](CCC(=O)NCCS(=O)(=O)O)[C@H]1CC[C@H]2[C@@H]3[C@@H](O)C[C@@H]4C[C@H](O)CC[C@]4(C)[C@H]3CC[C@]12C [tauroursodeoxycholic acid]
- decrease of TGF-β1 apoptosis (HuH-7 cells): 45.8±7.9%
- effect on DCA-induced MPT / mitochondrial swelling [1]: Inhibition of deoxycholic acid-induced MPT
- mitochondria viability following a stroke injury (stroke injury): improvement in mitochondria viability
- decrease of the area of stroke damage (stroke injury; pretreatment, compared to control animals): up to 50%
- effect on deoxycholic acid-induced cytochrome c release (cytochrome c): Inhibition of deoxycholic acid-induced MPT and cytochrome c release were also observed

Molecule: cyclosporine A
- inhibition of DCA-induced MPT (mitochondrial swelling) ([1]; 200 μM DCA, pretreatment 500 μM UDCA or 5 μM cyclosporine A): > 45% and 45.8±5.4%
- effect on DCA-induced MPT / mitochondrial swelling [1]: reduced deoxycholic acid-induced mitochondria swelling
